The source of these data is patent publication US8030323B2, “Pyrazole carboxamide derivatives, pharmaceutical compositions and its preparation” (Beijing Molecule Science and Technology Co., Ltd., priority 2006, dated 2011).

Each structure is given as a SMILES string.

This assay has as its target T1, CBI receptor (Rattus norvegicus, UniProt P20272).
T1 construct: Preparation of CBI receptor membrane protein in cerebellum of rat; from tissue; host or cells: Wistar rat cerebellum membranes
In words: Drug and CBI receptor competition binding experiment (rat cerebellum membrane protein). The settings on record: CBI receptor membrane protein from Wistar rat cerebellum; 30° C. for 1 hour; 1×10^−7 to 1×10^−11 mole concentration; read-out: antagonistic concentration of 50% (EC50) to CBI receptor. How it is done: 2.1 Preparation of CBI receptor membrane protein in cerebellum of rat: Wistar rat, 220-260 g, female and male being not limited, was killed by cutting head, its cerebellum was separated rapidly, weighted and added to a buffer of Tris-HCl in 10 times of volume (50 mM, Tris HCl, 5 mM MgCl2.6H2O, 1 mM EDTA, 0.5% (W/V) BSA, pH 7.4), homogenized by using homogenizer at 15000 rpm/min, 30 seconds once, 5 times in total. The homogenized liquid was centrifuged at 400×g for 10 minutes, the supernatant was centrifuged at 39000×g for 10 minutes, the precipitate was collected, re-suspended with Tris-HCl buffer of pH 7.4 in 10 times of volume of the original weight, and centrifuged at 39000×g for 10 minutes, the precipitate was washed with the same buffer, and centrifuged at 39000×g for 10 minutes, the resultant precipitate was washed with Tris-HCl. […]
100 μg of receptor protein, 20 μl of the compound in Example 1 in mole concentration of 1×10^−7, 1×10^−8, 1×10^−9, 1×10^−10 and 1×10^−11, respectively were added successively, reacted at 30° C. for 1 hour, the sample was spotted on glass fiber filtration membrane, filtrated under negative pressure, washed with cold buffer for 10 times, 2 ml per time, the filtration membrane was unwatered, dried over oven, and placed in scintillation bottle, added 1 ml scintillating liquid, the radioactivity strength was detected by LS6500 scintillation counter.

T1 sequence (P20272 whole entry): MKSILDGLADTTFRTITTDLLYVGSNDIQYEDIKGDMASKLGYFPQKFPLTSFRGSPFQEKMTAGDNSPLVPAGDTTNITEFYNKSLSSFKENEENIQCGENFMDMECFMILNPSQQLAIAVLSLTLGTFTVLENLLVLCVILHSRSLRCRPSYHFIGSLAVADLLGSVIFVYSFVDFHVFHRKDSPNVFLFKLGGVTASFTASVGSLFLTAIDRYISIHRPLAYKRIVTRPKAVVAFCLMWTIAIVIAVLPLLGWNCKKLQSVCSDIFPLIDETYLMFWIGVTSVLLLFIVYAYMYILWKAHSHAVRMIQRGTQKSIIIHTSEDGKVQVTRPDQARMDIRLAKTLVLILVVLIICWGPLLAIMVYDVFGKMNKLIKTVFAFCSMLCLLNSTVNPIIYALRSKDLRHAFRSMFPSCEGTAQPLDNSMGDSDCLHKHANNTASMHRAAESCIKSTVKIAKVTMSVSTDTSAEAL

Turning to `Cc1c(C(=O)NCc2cccnc2)nn(-c2ccc(Cl)cc2Cl)c1-c1ccc(Cl)cc1` [Example 1, N-(3-aminomethyl-pyridyl)-5-(4-chlorophenyl)-1-(2,4-dichlorophenyl)-4-methyl pyrazol-3-carboxamide], the EC50 is 0.13 nM.
